Measured values from PubChem BioAssay AID1259407 (Chemical Carcinogenesis Research Information System (CCRIS), 2018).
Activity calls are given as the source filed them. The rule behind the calls is not given here.

System: CCRIS mutagenicity, Ames/micronucleus/aberration tests
Experiment: CCRIS mutagenicity studies
[1] = Test System: AMES SALMONELLA TYPHIMURIUM, Strain/Indicator: TA98, Metabolic Activation: NONE, Method: PREINCUBATION
[2] = Test System: AMES SALMONELLA TYPHIMURIUM, Strain/Indicator: TA100, Metabolic Activation: RAT, LIVER, S-9, AROCLOR 1254, Method: STANDARD PLATE
[3] = Test System: AMES SALMONELLA TYPHIMURIUM, Strain/Indicator: TA98, Metabolic Activation: NONE, Method: STANDARD PLATE
[4] = Test System: AMES SALMONELLA TYPHIMURIUM, Strain/Indicator: TA100, Metabolic Activation: NONE, Method: STANDARD PLATE
[5] = End Point: IN VITRO CHROMOSOMAL ABERRATIONS, Test System: SYRIAN HAMSTER EMBRYO (SHE) CELLS, Metabolic Activation: NONE
[6] = Test System: AMES SALMONELLA TYPHIMURIUM, Strain/Indicator: TA98, Metabolic Activation: RAT, LIVER, S-9, AROCLOR 1254, Method: STANDARD PLATE
[7] = Test System: AMES SALMONELLA TYPHIMURIUM, Strain/Indicator: TA1535, Metabolic Activation: NONE, Method: STANDARD PLATE
[8] = Test System: AMES SALMONELLA TYPHIMURIUM, Strain/Indicator: TA1535, Metabolic Activation: RAT, LIVER, S-9, AROCLOR 1254, Method: STANDARD PLATE
[9] = Test System: AMES SALMONELLA TYPHIMURIUM, Strain/Indicator: TA1537, Metabolic Activation: NONE, Method: STANDARD PLATE
[10] = Test System: AMES SALMONELLA TYPHIMURIUM, Strain/Indicator: TA1537, Metabolic Activation: RAT, LIVER, S-9, AROCLOR 1254, Method: STANDARD PLATE
[11] = Test System: AMES SALMONELLA TYPHIMURIUM, Strain/Indicator: TA1538, Metabolic Activation: NONE, Method: STANDARD PLATE
[12] = Test System: AMES SALMONELLA TYPHIMURIUM, Strain/Indicator: TA1538, Metabolic Activation: RAT, LIVER, S-9, AROCLOR 1254, Method: STANDARD PLATE

**Q.** `Cc1ccc(N)c(C)c1` was tested. Which mutagenic call (End Point: IN VITRO CHROMOSOMAL ABERRATIONS, Test System: CHL CELLS, Metabolic Activation: RAT, LIVER, S-9, SODIUM PHENOBARBITAL AND 5,6-BENZOFLAVONE) did it give?
**A.** active; positive (structural and ploidy changes)

**Q.** And the mutagenic call (Test System: AMES SALMONELLA TYPHIMURIUM, Strain/Indicator: TA97, Metabolic Activation: HAMSTER, LIVER, S-9, AROCLOR 1254 (10%), Method: PREINCUBATION)?
**A.** active; positive

**Q.** And the mutagenic call (Test System: AMES SALMONELLA TYPHIMURIUM, Strain/Indicator: TA97, Metabolic Activation: NONE, Method: PREINCUBATION)?
**A.** inactive; negative

**Q.** What about the mutagenic call (Test System: AMES SALMONELLA TYPHIMURIUM, Strain/Indicator: TA97, Metabolic Activation: RAT, LIVER, S-9, AROCLOR 1254 (10%), Method: PREINCUBATION) of the same compound?
**A.** inactive; negative

**Q.** And the mutagenic call (Test System: AMES SALMONELLA TYPHIMURIUM, Strain/Indicator: TA98, Metabolic Activation: HAMSTER, LIVER, S-9, AROCLOR 1254 (10%), Method: PREINCUBATION)?
**A.** active; positive

**Q.** And the mutagenic call [1]?
**A.** inactive; negative

**Q.** And the mutagenic call (Test System: AMES SALMONELLA TYPHIMURIUM, Strain/Indicator: TA98, Metabolic Activation: RAT, LIVER, S-9, AROCLOR 1254 (10%), Method: PREINCUBATION)?
**A.** active; positive

**Q.** What about the mutagenic call (Test System: AMES SALMONELLA TYPHIMURIUM, Strain/Indicator: TA98, Metabolic Activation: S-9, Method: PREINCUBATION) of the same compound?
**A.** inactive; negative

**Q.** What about the mutagenic call (Test System: AMES SALMONELLA TYPHIMURIUM, Strain/Indicator: TA100, Metabolic Activation: HAMSTER, LIVER, S-9, AROCLOR 1254 (10%), Method: PREINCUBATION) of the same compound?
**A.** active; positive

**Q.** What about the mutagenic call (Test System: AMES SALMONELLA TYPHIMURIUM, Strain/Indicator: TA100, Metabolic Activation: MOUSE, LIVER, S-9, AROCLOR 1254, Method: STANDARD PLATE) of the same compound?
**A.** active; positive

**Q.** And the mutagenic call (Test System: AMES SALMONELLA TYPHIMURIUM, Strain/Indicator: TA100, Metabolic Activation: NONE, Method: PREINCUBATION)?
**A.** inactive; negative

**Q.** And the mutagenic call (Test System: AMES SALMONELLA TYPHIMURIUM, Strain/Indicator: TA100, Metabolic Activation: RAT, LIVER, S-9, AROCLOR 1254 (10%), Method: PREINCUBATION)?
**A.** active; positive

**Q.** And the mutagenic call [2]?
**A.** active; positive

**Q.** And the mutagenic call (Test System: AMES SALMONELLA TYPHIMURIUM, Strain/Indicator: TA100, Metabolic Activation: S-9, Method: PREINCUBATION)?
**A.** active; positive

**Q.** And the mutagenic call (Test System: AMES SALMONELLA TYPHIMURIUM, Strain/Indicator: TA1535, Metabolic Activation: HAMSTER, LIVER, S-9, AROCLOR 1254 (10%), Method: PREINCUBATION)?
**A.** inactive; negative

**Q.** What about the mutagenic call (Test System: AMES SALMONELLA TYPHIMURIUM, Strain/Indicator: TA1535, Metabolic Activation: NONE, Method: PREINCUBATION) of the same compound?
**A.** inactive; negative

**Q.** What about the mutagenic call (Test System: AMES SALMONELLA TYPHIMURIUM, Strain/Indicator: TA1535, Metabolic Activation: RAT, LIVER, S-9, AROCLOR 1254 (10%), Method: PREINCUBATION) of the same compound?
**A.** inactive; negative

**Q.** And the mutagenic call (Test System: AMES SALMONELLA TYPHIMURIUM, Strain/Indicator: TA1537, Metabolic Activation: HAMSTER, LIVER, S-9, AROCLOR 1254 (10%), Method: PREINCUBATION)?
**A.** inactive; negative

**Q.** What about the mutagenic call (Test System: AMES SALMONELLA TYPHIMURIUM, Strain/Indicator: TA1537, Metabolic Activation: RAT, LIVER, S-9, AROCLOR 1254 (10%), Method: PREINCUBATION) of the same compound?
**A.** inactive; negative

**Q.** And the mutagenic call (Test System: UDS RODENT HEPATOCYTES, Strain/Indicator: THY INCORP (NON-S-PHASE), Metabolic Activation: NONE, Method: AUTORADIOGRAPHY)?
**A.** active; positive

**Q.** With `NC(=O)c1csc([N+](=O)[O-])c1` as the compound, how does the mutagenic call [3] read?
**A.** active; positive

**Q.** And the mutagenic call [4]?
**A.** active; positive

**Q.** `Clc1cccc(C2CO2)c1` (configuration not stated) was tested. Which mutagenic call (Test System: E. COLI, Strain/Indicator: WP2 UVRA, Metabolic Activation: NONE, Method: STANDARD PLATE) did it give?
**A.** active; positive

**Q.** Which mutagenic call [1] does the source give for `CC(=O)Nc1ccc(C)c(N)c1` here?
**A.** inactive; negative

**Q.** What about the mutagenic call (Test System: AMES SALMONELLA TYPHIMURIUM, Strain/Indicator: TA98, Metabolic Activation: RAT, LIVER, S-9, PHENOBARBITAL AND 5,6-BENZOFLAVONE, Method: PREINCUBATION) of the same compound?
**A.** active; positive

**Q.** For `NC(=NCCCCCCN=C(N)/N=C(\N)Nc1ccc(Cl)cc1)/N=C(\N)Nc1ccc(Cl)cc1`, which mutagenic call [5] is on record?
**A.** inactive; negative; toxic at 10 um

**Q.** And the mutagenic call (End Point: IN VITRO CHROMOSOMAL ABERRATIONS, Test System: SYRIAN HAMSTER EMBRYO (SHE) CELLS, Metabolic Activation: RAT, LIVER, S-9)?
**A.** inactive; negative

**Q.** Which results are given for `CCCCCCCC/C=C\CCCCCCCCN` (tested in a mixture with another compound)?
**A.** mutagenic call [3]: inactive; negative; mutagenic call [6]: active; positive; mutagenic call [4]: inactive; negative; mutagenic call [2]: inactive; negative; mutagenic call [7]: inactive; negative; mutagenic call [8]: inactive; negative; mutagenic call [9]: inactive; negative; mutagenic call [10]: inactive; negative; mutagenic call [11]: inactive; negative; mutagenic call [12]: active; positive

**Q.** Which mutagenic call (End Point: IN VITRO CHROMOSOMAL ABERRATIONS, Test System: CHINESE HAMSTER V79 CELLS, Metabolic Activation: NONE) does the source give for `C[As](C)O` here?
**A.** active; positive (structural and ploidy changes)

**Q.** How did the mutagenic call [5] turn out when `CC/C(=C(\c1ccccc1)c1ccc(OCCN(C)C)cc1)c1ccccc1` was run?
**A.** inactive; negative

**Q.** And the mutagenic call (End Point: IN VITRO MICRONUCLEUS, Test System: AHH-1 CELLS, Metabolic Activation: NONE)?
**A.** inactive; negative

**Q.** And the mutagenic call (End Point: IN VITRO MICRONUCLEUS, Test System: MCL-5 CELLS, Metabolic Activation: NONE)?
**A.** active; positive

**Q.** And the mutagenic call (Test System: AMES SALMONELLA TYPHIMURIUM, Strain/Indicator: TA98, Metabolic Activation: HAMSTER, LIVER, S-9, AROCLOR 1254, Method: STANDARD PLATE)?
**A.** inactive; negative

**Q.** What about the mutagenic call [3] of the same compound?
**A.** inactive; negative

**Q.** And the mutagenic call [6]?
**A.** inactive; negative

**Q.** What about the mutagenic call (Test System: AMES SALMONELLA TYPHIMURIUM, Strain/Indicator: TA100, Metabolic Activation: HAMSTER, LIVER, S-9, AROCLOR 1254, Method: STANDARD PLATE) of the same compound?
**A.** inactive; negative

**Q.** And the mutagenic call [4]?
**A.** inactive; negative

**Q.** What about the mutagenic call [2] of the same compound?
**A.** inactive; negative

**Q.** What about the mutagenic call (Test System: AMES SALMONELLA TYPHIMURIUM, Strain/Indicator: TA1535, Metabolic Activation: HAMSTER, LIVER, S-9, AROCLOR 1254, Method: STANDARD PLATE) of the same compound?
**A.** inactive; negative

**Q.** What about the mutagenic call [7] of the same compound?
**A.** inactive; negative

**Q.** What about the mutagenic call [8] of the same compound?
**A.** inactive; negative

**Q.** And the mutagenic call (Test System: AMES SALMONELLA TYPHIMURIUM, Strain/Indicator: TA1537, Metabolic Activation: HAMSTER, LIVER, S-9, AROCLOR 1254, Method: STANDARD PLATE)?
**A.** inactive; negative

**Q.** What about the mutagenic call [9] of the same compound?
**A.** inactive; negative

**Q.** And the mutagenic call [10]?
**A.** inactive; negative

**Q.** And the mutagenic call (Test System: AMES SALMONELLA TYPHIMURIUM, Strain/Indicator: TA1538, Metabolic Activation: HAMSTER, LIVER, S-9, AROCLOR 1254, Method: STANDARD PLATE)?
**A.** inactive; negative

**Q.** What about the mutagenic call [11] of the same compound?
**A.** inactive; negative

**Q.** What about the mutagenic call [12] of the same compound?
**A.** inactive; negative

**Q.** And the mutagenic call (Test System: CHINESE HAMSTER V-79, Strain/Indicator: V-79 (HPRT)/6-THIOGUANINE, Metabolic Activation: NONE)?
**A.** inactive; negative

**Q.** Which results are given for `CSc1ccc(Cl)cc1`?
**A.** mutagenic call [3]: inactive; negative; mutagenic call [6]: inactive; negative; mutagenic call [4]: inactive; negative; mutagenic call [2]: inactive; negative; mutagenic call [7]: inactive; negative; mutagenic call [8]: inactive; negative; mutagenic call [9]: inactive; negative; mutagenic call [10]: inactive; negative; mutagenic call [11]: inactive; negative; mutagenic call [12]: inactive; negative
